Here are results for ten compounds from ChEMBL document CHEMBL6103583, “Purified Monascus Pigments: Biological Activities and Mechanisms of Action” (J Nat Prod, 2025).

The subject of experiment [1] is RAW264.7. The experiment is described as follows: Antiinflammatory activity against mouse RAW264.7 cells assessed as inhibition of LPS-NO production incubated for 24 hrs by Griess reagent based assay. The format is functional, cell-based. The following applies: RAW264.7, 24 h.
Experiment [2] relates to RAW264.7. The experiment is described as follows: Antiinflammatory activity against mouse RAW264.7 cells assessed as inhibition of LPS-NO production by Griess reagent based assay. Type of experiment: functional, cell-based. (Griess reagent forms a coloured azo dye with nitrite.)
Experiment [3] relates to WiDr. The experiment is described as follows: Antiproliferative activity against human WiDr cells assessed as reduction in cell growth incubated for 3 days by MTT assay. The format is functional, cell-based. The following applies: 72 h. (Tetrazolium assays rely on reduction of a dye to a coloured formazan, in cell work by metabolically active cells.)
For experiment [4], the system named is HEp-2. The experiment in a line: Antiproliferative activity against human HEp-2 cells assessed as reduction in cell growth incubated for 3 days by MTT assay. The format is functional, cell-based. The settings on record: HEp-2, 72 h.
Another experiment has as its system Klebsiella aerogenes. The experiment is described as follows: Antibacterial activity against Enterobacter aerogenes KCCM 12177 assessed as reduction in bacterial growth incubated for 12 hrs by broth micro-dilution method. The format is functional. In general terms: Broth dilution looks for growth in wells or tubes with falling amounts of substance.
The test system of experiment [5] is Staphylococcus aureus. The experiment in a line: Antibacterial activity against Staphylococcus aureus KCCM 11817 assessed as reduction in bacterial growth incubated for 12 hrs by broth micro-dilution method. The format is functional.
For experiment [6], the system named is Staphylococcus aureus. The experiment in a line: Antibacterial activity against Staphylococcus aureus […] assessed as reduction in bacterial growth incubated for 12 hrs by broth micro-dilution method. Type of experiment: functional.
For another experiment, the system named is Bacillus subtilis. The experiment in a line: Antibacterial activity against Bacillus subtilis KCCM 11316 assessed as reduction in bacterial growth incubated for 12 hrs by broth micro-dilution method. The format is functional.
Another experiment has as its system Enterococcus faecalis. The experiment is described as follows: Antibacterial activity against Enterococcus faecalis KCCM 11814 assessed as reduction in bacterial growth incubated for 12 hrs by broth micro-dilution method. The format is functional.
The test system of a further experiment is Haemophilus influenzae. The experiment is described as follows: Antibacterial activity against Haemophilus influenzae KCCM 11903 assessed as reduction in bacterial growth incubated for 12 hrs by broth micro-dilution method. The format is functional.
In another experiment the test system is Proteus vulgaris. The experiment is described as follows: Antibacterial activity against Proteus vulgaris KCCM 11906 assessed as reduction in bacterial growth incubated for 12 hrs by broth micro-dilution method. Type of experiment: functional.
For a further experiment, the system named is Pseudomonas aeruginosa. The experiment in a line: Antibacterial activity against Pseudomonas aeruginosa KCCM 11328 assessed as reduction in bacterial growth incubated for 12 hrs by micro-dilution method. The format is functional.
Experiment [7] in a line: Antibacterial activity against Salmonella choleraesuis KCCM 11806 assessed as reduction in bacterial growth. Type of experiment: functional, Salmonella enterica subsp. enterica serovar Choleraesuis. The following applies: Salmonella enterica.
The next experiment has as its system Salmonella typhimurium. The experiment in a line: Antibacterial activity against Salmonella Typhimurium KCCM 11806 assessed as reduction in bacterial growth incubated for 12 hrs by micro-dilution method. The format is functional, Salmonella enterica subsp. enterica serovar Typhimurium. The following applies: Salmonella enterica.
In the next experiment the test system is Shigella sonnei. The experiment is described as follows: Antibacterial activity against Shigella sonnei KCCM 40253 assessed as reduction in bacterial growth incubated for 12 hrs by micro-dilution method. Type of experiment: functional.
The test system of a further experiment is Aspergillus niger. The experiment is described as follows: Antifungal activity against Aspergillus niger KCCM 11239 assessed as reduction in […] incubated for 12 hrs by micro-dilution method. Type of experiment: functional.
A further experiment concerns Candida albicans. The experiment is described as follows: Antifungal activity against Candida albicans KCCM 10231 assessed as reduction in […] incubated for 12 hrs by micro-dilution method. The format is functional.
The subject of the next experiment is Penicillium citrinum. The experiment is described as follows: Antifungal activity against Penicillium citrinum KCCM 11663 assessed as reduction in […] incubated for 12 hrs by micro-dilution method. The format is functional.
Another experiment relates to Penicillium digitatum. The experiment in a line: Antifungal activity against Penicillium digitatum KCCM 60140 assessed as reduction in […] incubated for 12 hrs by micro-dilution method. Type of experiment: functional.
The subject of a further experiment is LNCaP. The experiment in a line: Antiproliferative activity against human LNCaP cells assessed as reduction in cell viability incubated for 48 hrs by MTT assay. The format is functional, cell-based.
A further experiment has as its system PC-3. The experiment is described as follows: Antiproliferative activity against human PC-3 cells assessed as reduction in cell viability incubated for 48 hrs by MTT assay. Type of experiment: functional, cell-based. The following applies: PC-3, 48 h.
Experiment [8] deals with HEp-2. The experiment in a line: Antiproliferative activity against human HEp-2 cells assessed as reduction in cell viability incubated for 72 hrs by MTT assay. The settings on record: HEp-2, 72 h. Type of experiment: functional, cell-based.
The test system of experiment [9] is WiDr. The experiment is described as follows: Antiproliferative activity against human WiDr cells assessed as reduction in cell viability incubated for 72 hrs by MTT assay. The format is functional, cell-based.

Converted amounts (≈) assume the structure as drawn.

For the compound `C/C=C/C1=CC2=CC3=C(C(=O)CCCCC)C(=O)OC3(C)C(=O)C2=CN1` (centres undefined), in the experiment on RAW264.7 [1], the IC50 came out at 12.5 µM.
Consider `C/C=C/C1=CC2=C(CO1)C(=O)[C@](C)(O)[C@@H](CC(=O)CCCCC)C2`, for which the IC50 amounted to 22.6 µM in the experiment on RAW264.7 [2], 55.3 µM in the experiment on WiDr [3] and 77.6 µM with HEp-2 [4].
Turning to `C/C=C/c1cc2c(cn1)C(=O)[C@](C)(O)[C@@H](CC(=O)CCCCCCC)C2`, the half-maximal inhibitory concentration (IC50) in the experiment with RAW264.7 [1] stood at 74.7 µM.
In the case of `N[C@@H](Cc1ccc(O)cc1)C(=O)O` [TYROSINE], the MIC in the experiment with Klebsiella aerogenes stood at 4 µg/mL (≈ 22.1 µM); with Staphylococcus aureus [5] it was 8 µg/mL (≈ 44.2 µM); in the experiment with Staphylococcus aureus [6] it was 8 µg/mL (≈ 44.2 µM); with Bacillus subtilis it was 4 µg/mL (≈ 22.1 µM); in the experiment on Enterococcus faecalis, 8 µg/mL (≈ 44.2 µM); with Haemophilus influenzae, 32 µg/mL (≈ 177 µM). The MIC in the experiment with Proteus vulgaris was found to be 32 µg/mL (≈ 177 µM); in the experiment with Pseudomonas aeruginosa, 8 µg/mL (≈ 44.2 µM); in [7], 8 µg/mL (≈ 44.2 µM); in the experiment with Salmonella typhimurium it was 16 µg/mL (≈ 88.3 µM); in the experiment with Shigella sonnei, 32 µg/mL (≈ 177 µM); in the experiment on Aspergillus niger it was 4 µg/mL (≈ 22.1 µM). For the same compound, the MIC worked out at 8 µg/mL (≈ 44.2 µM) in the experiment on Candida albicans, 8 µg/mL (≈ 44.2 µM) in the experiment with Penicillium citrinum and 32 µg/mL (≈ 177 µM) in the experiment on Penicillium digitatum.
Regarding `C/C=C/C1=CC2=C(CO1)C(=O)[C@]1(C)OC(=O)[C@H](C(O)CCCCC)[C@H]1C2` (some centres undefined), the IC50 in the experiment with LNCaP came to 45 µM; in the experiment on PC-3, 47 µM.
`C/C=C/C1=CC2=CC3=C(C(=O)CCCCCCC)C(=O)O[C@@]3(C)C(=O)C2=CO1`: the half-inhibitory concentration (IC50) in the experiment on HEp-2 [8] was 55.9 µM; with WiDr [9] it was 54.1 µM; with RAW264.7 [1], over 39.2 µM.
For the compound `C/C=C/C1=CC2=CC3=C(C(=O)CCCCC)C(=O)O[C@@]3(C)[C@@](O)(CC(C)=O)C2=CO1`, the values for the IC50 in the experiment with HEp-2 [8], in the experiment with WiDr [9] and with RAW264.7 [1] were 10.4 µM, 10.5 µM and 1.7 µM, respectively.
Take `CCCCCCCCCC(=O)[C@H]1C(=O)O[C@]2(C)C(=O)C=C3C=C(CC(C)OC(C)=O)OC=C3[C@H]12` (some centres undefined): in the experiment on RAW264.7 [1], the IC50 is 16.6 µM.
Turning to `C/C=C/C1=CC2=CC3=C(C(=O)CCCCCCC)C(=O)O[C@@]3(C)[C@@H](O)C2=CO1`, the IC50 was determined as 9.8 µM in the experiment on HEp-2 [8], 8.6 µM in the experiment with WiDr [9] and 0.99 µM in the experiment on RAW264.7 [1].
On to `CCCCCC(=O)C[C@@H]1CC(CC(=O)CCC)=C(C)C(=O)[C@]1(C)O`, for which the IC50 in the experiment on WiDr [3] was determined as 142 µM; in the experiment on HEp-2 [4] it was 124 µM.

Broadly, the IC50 is the concentration needed to halve the response being measured.
